Columns and labels:
[1] = tested on: C57BL/6J mouse models of anemia induced by cisplatin; assay: Improvement of anemia induced by cisplatin administration; assay type: in vivo; settings: cisplatin-induced anemia mice; for Improvement of anemia (%): po
Method: 5. Pharmacodynamic assay
The experimental mice (SPF, […], male) were obtained from SPF (Beijing) Biotechnology Co., Ltd (permit number: SCXK (Jing) 2019-0010). All animal related experiments were conducted under a China Pharmaceutical University (the certification of using the housing facility of laboratory animals: SYXK (Su) 2018 -0019) IACUC approved protocol in compliance with the guide for the care and use of laboratory animals (number: 202013705). […]
Representative compounds and Roxadustat were formulated in normal saline solution. […]
China Pharmaceutical University (ADVIA 2120 hematology system). […]
5.3 Improvement of anemia induced by cisplatin administration
C57BL/6J mice were treated with cisplatin ( po, 7 mg·kg-1) on days 0, 7, 14, and 28 of the experiment. On the 29th day, the animals were randomized into sham, control, and treated groups (n=5). […]
treatment anemia caused by cisplatin. The mice were treated with the compounds every alternate day for 30 days. the test sample is obtained via orbital venous plexus. The hemoglobin of samples was analyzed in the center for new drug safety evaluation and research at China Pharmaceutical University (ADVIA 2120 hematology system).

[2] = Plasma stability (rat); assay type: in vitro ADME; settings: 100 μM
Method: (§1) A structure of PHD2 in complex with Fe and a 2OG competing inhibitor (PDB ID: 4KBZ) was obtained from PDB website. The structure files of protein and compounds for docking were prepared using the Discovery Studio (DS) 2020 software. A water molecule HOH624, conserved in the active binding site of PHD2, was retained during the docking. Residues of PHD2 around the native ligand (radius = 10 Å) were defined as the binding sites for docking. Subsequently, the ligand was removed; the Fe (II) was retained during the docking. Compounds were docked into the binding sites using GOLD 5.1. Docking procedures were performed using the default setting with 100 genetic algorithm (GA) runs of ligands. […]
(§2) 17 was preincubated with microsomes from different species (0.5 mg/mL) at 1 μM for 5 min at 37 °C in 100 mM PBS buffer (pH 7.4). […] The samples were centrifuged at 5000 rpm f or 10 min; the supernatants were then analyzed by HPLC. […]
(§3) Representative compounds and Roxadustat were formulated in normal saline solution. […] Subsequently, these samples were analyzed for reticulocytes in the center for new drug safety evaluation and research of China Pharmaceutical University (ADVIA 2120 hematology system). […]
(§4) Plasma EPO was evaluated using the erythropoietin quantikine ELISA kit for mice (MEP00B). […]
(§5) in normal saline solution. […] Plasma was collected by centrifugation at 3000 rpm, these plasmas were detected by E PO […]

[3] = Metabolic stability in human liver microsomes; assay type: in vitro ADME
[4] = tested on: reticulocytes in C57BL/6J mice; assay: In vivo reticulocytes increased assay; parameters: species or system mouse
Method: as §1, §2, §3, §4, §5

For `O=C(N/N=C/c1cccc(O)c1Cl)c1cnc(-c2cccnn2)[nH]c1=O` [compound 17], the “hemoglobin (Hb) levels” value ([1]; po 5, 10, 20 mg kg−1, every alternate day for 30 days) was “increased in a dose‐dependent manner”, the “Improvement of anemia (%)” value ([1]; 5 mg·kg^-1) was 31.8% and the “Improvement of anemia (%)” value ([1]; 10 mg·kg^-1) was 51.5%. For the same compound, the “Improvement of anemia (%)” value ([1]; 20 mg·kg^-1) was 90.9%, the plasma stability [2] was “stable in rat plasma” and the “compound present (remaining) in liver microsomes” value ([3]; after 50 min, 1 μM, 0.5 mg/mL) was greater than 80%. The half-life at 1 μM ([3]; pH 7.4, read-out: t1/2 in liver microsomes) was greater than 1.67 h, the reticulocyte induction ([4]; C57BL/6J male mice, 20 mg kg−1 po, three administrations, 72 h) was “superior with respect to inducing reticulocytes compared to the other tested ISISS compounds” and the “changes in reticulocytes, multiple doses” value ([4]; C57BL/6J mice, 5, 10 and 20 mg kg−1 po) was “dose‐dependent increase in reticulocytes”.

— PMC9827864, “In Situ Inhibitor Synthesis and Screening by Fluorescence Polarization: An Efficient Approach for Accelerating Drug Discovery” (Angewandte Chemie (International Ed. in English), 2022)
